The record followed here is ChEMBL document CHEMBL3785080, “Individual and combined antiparasitic effect of six plant metabolites against Leishmania amazonensis and Trypanosoma cruzi” (Bioorg Med Chem Lett, 2016).

Experiment [1] in a line: Cytotoxicity against human THP1 cells assessed as cell viability after 72 hrs by MTT assay. Conditions: THP-1, 72 h. The class given is functional. On the technique in general: Tetrazolium dyes change colour on reduction, which living cells bring about.
Another experiment has as its system Leishmania amazonensis. Description: Antileishmanial activity against intracellular amastigote stage of Leishmania amazonensis infected in human THP1 cells […] by microplate based assay. The class given is functional, organism-based.
Experiment [2] can be described thus: Selectivity index, ratio of CC50 for human THP1 cells to IC50 for Leishmania amazonensis. The class given is functional, THP-1.
Experiment [3] in a line: Selectivity index, ratio of CC50 for human THP1 cells to IC50 for Trypanosoma cruzi Tulahuen. The class given is functional, THP-1.
In a further experiment the test system is Trypanosoma cruzi. Description: Antiprotozoan activity against intracellular amastigote stage of Trypanosoma cruzi Tulahuen infected in human THP1 cells assessed as reduction in parasite viability after 48 hrs by microplate based assay. Conditions: THP-1, 48 h. The class given is functional, organism-based.

The CC50 is the concentration that lowers cell viability or growth by half. The term IC50 denotes the concentration that inhibits the measured activity by half.

As to `CC(C)=CCc1c(O)ccc(C(=O)/C=C/c2ccc(O)cc2)c1O` [ISOBAVACHALCONE], the cytotoxic concentration (CC50) in experiment [1] turned out to be 36 µM.

For `COc1c(O)ccc2c1C(O)N(C)c1c-2ccc2cc3c(cc12)OCO3` (centres undefined), the CC50 in experiment [1] was over 125 µM. In addition, it took 16.2 µM to reach half-maximal inhibition in the experiment on Leishmania amazonensis (IC50). In addition, the “Ratio CC50/IC50” value in experiment [2] was over 7.69.

Turning to `CC(C)=CCc1c(O)c(CC=C(C)C)c2c(c1O)C(=O)C[C@@H](c1ccc(O)c(O)c1)O2`, the half-maximal cytotoxic concentration (CC50) in experiment [1] was determined as 46.3 µM. For the same compound, the IC50 in the experiment on Leishmania amazonensis is 29.2 µM. The “Ratio CC50/IC50” value in experiment [2] is given as 1.58.

For the compound `CC1(C)C=Cc2c(ccc(C(=O)/C=C/c3ccccc3)c2O)O1` [LONCHOCARPIN], the results for the “Ratio CC50/IC50” value in experiment [3] and in experiment [2] were 1.48 and 3.03, respectively. The cytotoxic concentration (CC50) in experiment [1] came out at 66 µM. The IC50 in the experiment with Leishmania amazonensis came out at 21.8 µM; in the experiment on Trypanosoma cruzi, 44.5 µM.

`O=C(Cn1ccnc1[N+](=O)[O-])NCc1ccccc1` [BENZNIDAZOLE]: the “Ratio CC50/IC50” value in experiment [3] is reported as over 12. In experiment [1], the cytotoxic concentration (CC50) is over 125 µM. The IC50 in the experiment on Trypanosoma cruzi is 10.2 µM.

As for `CC1(C)C=Cc2c(ccc(C(=O)/C=C/c3ccc(O)cc3)c2O)O1`, the CC50 in experiment [1] came out at 76.2 µM. In addition, inhibition in the experiment on Leishmania amazonensis was half-maximal at 23 µM (IC50). In experiment [2], the “Ratio CC50/IC50” value is reported as 3.31.

Turning to `C[C@@H]1[C@H](O)[C@@H](C)/C=C/C=C/C=C/C=C/C=C/C=C/C=C/[C@H](O[C@@H]2O[C@H](C)[C@@H](O)[C@H](N)[C@@H]2O)C[C@@H]2O[C@](O)(C[C@@H](O)C[C@@H](O)[C@H](O)CC[C@@H](O)C[C@@H](O)CC(=O)O[C@H]1C)C[C@H](O)[C@H]2C(=O)O` [AMPHOTERICIN B], the 50% cytotoxic concentration (CC50) in experiment [1] stood at 10 µM. In the experiment with Leishmania amazonensis, half-maximal inhibition (IC50) was put at 0.07 µM. In experiment [2], the “Ratio CC50/IC50” value was 142.

As to `COc1c(C=O)c(O)cc2c1C(=O)c1ccccc1C2=O` [DAMNACANTHAL], in experiment [3], the “Ratio CC50/IC50” value is on record as 0.79. The 50% cytotoxic concentration (CC50) in experiment [1] came out at 31.5 µM. Also, in the experiment with Trypanosoma cruzi, the IC50 turned out to be 39.5 µM.
